“And” between values parts separate entries of the source, which are not always exact repeats. Equal entries are not always repeated. Inconclusive results and toxic doses are left out. Rule as the data show it: active = T/C of 150% or more; inactive = T/C below 125%.
Tested on: L1210 leukemia ip in BDF1 mice, survival T/C
Test: NCI In Vivo Anticancer Drug Screen. Data for tumor model L1210 Leukemia (intraperitoneal) in B6D2F1 (BDF1) mice
Conditions: endpoint: mean survival time, higher = longer survival
Method in brief: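 Tumor was transplanted into mice, which were then dosed with test compound or vehicle alone. Survival was recorded for each group, and the treated figure was expressed relative to the control figure.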

[1] = dose: 100.0 mg/kg/injection, schedule: Q04DX003 (ip), vehicle: Klucel (hydroxypropylcellulose) (HPC)
[2] = dose: 200.0 mg/kg/injection, schedule: Q04DX003 (ip), vehicle: Klucel (hydroxypropylcellulose) (HPC)
[3] = dose: 400.0 mg/kg/injection, schedule: Q04DX003 (ip), vehicle: Klucel (hydroxypropylcellulose) (HPC)
[4] = dose: 100.0 mg/kg/injection, schedule: Q01DX001 (ip), vehicle: saline
[5] = dose: 200.0 mg/kg/injection, schedule: Q01DX001 (ip), vehicle: saline
[6] = dose: 400.0 mg/kg/injection, schedule: Q01DX001 (ip), vehicle: saline
[7] = dose: 200.0 mg/kg/injection, schedule: Q04DX002 (ip), vehicle: saline with Tween-80
[8] = dose: 100.0 mg/kg/injection, schedule: Q04DX003 (ip), vehicle: saline with Tween-80
[9] = dose: 200.0 mg/kg/injection, schedule: Q04DX003 (ip), vehicle: saline with Tween-80
[10] = dose: 400.0 mg/kg/injection, schedule: Q04DX003 (ip), vehicle: saline with Tween-80
[11] = dose: 100.0 mg/kg/injection, schedule: Q01DX009 (ip), vehicle: Klucel (hydroxypropylcellulose) (HPC)
[12] = dose: 200.0 mg/kg/injection, schedule: Q01DX009 (ip), vehicle: Klucel (hydroxypropylcellulose) (HPC)
[13] = dose: 400.0 mg/kg/injection, schedule: Q01DX009 (ip), vehicle: Klucel (hydroxypropylcellulose) (HPC)
[14] = dose: 100.0 mg/kg/injection, schedule: Q01DX009 (ip), vehicle: saline with Tween-80
[15] = dose: 200.0 mg/kg/injection, schedule: Q01DX009 (ip), vehicle: saline with Tween-80
[16] = dose: 400.0 mg/kg/injection, schedule: Q01DX009 (ip), vehicle: saline with Tween-80

Measured: T/C

Nc1nc(N)c(N=O)c(Nc2ccc(Cl)c(Cl)c2)n1
inactive: dose: 3.12 mg/kg/injection, schedule: Q01DX Z (ip), vehicle: carboxymethylcellulose (CMC) 117 % of control | dose: 6.25 mg/kg/injection, schedule: Q01DX Z (ip), vehicle: carboxymethylcellulose (CMC) 104 % of control | dose: 12.5 mg/kg/injection, schedule: Q01DX Z (ip), vehicle: carboxymethylcellulose (CMC) 106 % of control | dose: 25.0 mg/kg/injection, schedule: Q01DX Z (ip), vehicle: carboxymethylcellulose (CMC) 109 % of control | dose: 100.0 mg/kg/injection, schedule: Q01DX Z (ip), vehicle: carboxymethylcellulose (CMC) 89 % of control | dose: 400.0 mg/kg/injection, schedule: Q01DX Z (ip), vehicle: carboxymethylcellulose (CMC) 86 % of control

CC(=O)OC1CCC2(C)C3CCC4(C)C(OC(=O)c5ccccc5)CCC4C3C3C(=O)OC32C1 (stereo not given)
inactive: [1] 95 % of control | [2] 95 % of control | [3] 95 % of control

CC1=NNC(=O)C1(Cl)c1ccc(N)cc1 (stereo not given)
inactive: [4] 102 % of control | [5] 100 % of control | [6] 100 % of control

CCOC(=O)c1ccc(N(N=O)C(C)C)cc1
inactive: dose: 100.0 mg/kg/injection, schedule: Q04DX002 (ip), vehicle: saline with Tween-80 101 % of control | [7] 86 % of control | dose: 400.0 mg/kg/injection, schedule: Q04DX002 (ip), vehicle: saline with Tween-80 97 % of control

O=C(Nc1ccccc1Cl)OCC#CCOC(=O)Nc1ccccc1Cl
inactive: [8] 102 % of control | [9] 93 % of control | [10] 91 % of control

Cc1cc2c(=O)[nH]c(N)nc2nc1C
inactive: dose: 100.0 mg/kg/injection, schedule: Q01DX Z (ip), vehicle: methylcellulose (MC) 95 % of control | dose: 200.0 mg/kg/injection, schedule: Q01DX Z (ip), vehicle: methylcellulose (MC) 94 % of control

CC(=O)c1cc([N+](=O)[O-])ccc1O
inactive: [4] 90 % of control | [5] 97 % of control | [6] 90 % of control

Cc1c[n+]([O-])ccc1N=NN(C)c1ccccc1C
inactive: dose: 18.75 mg/kg/injection, schedule: Q04DX002 (ip), vehicle: saline with Tween-80 102 % of control | dose: 37.5 mg/kg/injection, schedule: Q04DX002 (ip), vehicle: saline with Tween-80 105 % of control | dose: 75.0 mg/kg/injection, schedule: Q04DX002 (ip), vehicle: saline with Tween-80 102 % of control | [7] 86 % of control

C[N+](C)(CC(=O)Nc1ccc(Cl)c(C(F)(F)F)c1)CC(=O)c1ccc(Cl)c(Cl)c1
inactive: dose: 100.0 mg/kg/injection, schedule: Q04DX003 (ip), vehicle: saline sonified 97 % of control | dose: 200.0 mg/kg/injection, schedule: Q04DX003 (ip), vehicle: saline sonified 111 % of control | dose: 400.0 mg/kg/injection, schedule: Q04DX003 (ip), vehicle: saline sonified 100 % of control

c1ccc(-c2cscc2-c2ccccc2)cc1
inactive: dose: 25.0 mg/kg/injection, schedule: Q01DX009 (ip), vehicle: saline 105 % of control | dose: 50.0 mg/kg/injection, schedule: Q01DX009 (ip), vehicle: saline 96 % of control | dose: 100.0 mg/kg/injection, schedule: Q01DX009 (ip), vehicle: saline 100 % of control | dose: 200.0 mg/kg/injection, schedule: Q01DX009 (ip), vehicle: saline 97 % of control | dose: 400.0 mg/kg/injection, schedule: Q01DX009 (ip), vehicle: saline 98 % of control

CCCOC(=O)N(CC)C(=NCC)c1ccc(NC(=O)c2ccc(C(=O)Nc3ccc(C(=NCC)N(CC)C(=O)OCCC)cc3)cc2)cc1
inactive: dose: 2.5 mg/kg/injection, schedule: Q01DX015 (ip), vehicle: methylcellulose (MC) 95 % of control | dose: 5.0 mg/kg/injection, schedule: Q01DX015 (ip), vehicle: methylcellulose (MC) 101 % of control | dose: 10.0 mg/kg/injection, schedule: Q01DX015 (ip), vehicle: methylcellulose (MC) 101 % of control | dose: 20.0 mg/kg/injection, schedule: Q01DX015 (ip), vehicle: methylcellulose (MC) 109 % of control | dose: 37.5 mg/kg/injection, schedule: Q01DX015 (ip), vehicle: methylcellulose (MC) 112 % of control | dose: 75.0 mg/kg/injection, schedule: Q01DX015 (ip), vehicle: methylcellulose (MC) 90 % of control | dose: 150.0 mg/kg/injection, schedule: Q01DX015 (ip), vehicle: methylcellulose (MC) 92 % of control | dose: 300.0 mg/kg/injection, schedule: Q01DX015 (ip), vehicle: methylcellulose (MC) 93 % of control

CC(O)(c1ccncc1)c1cc2ccccc2n1S(=O)(=O)c1ccccc1 (stereo not given)
inactive: dose: 100.0 mg/kg/injection, schedule: Q04DX002 (ip), vehicle: Klucel (hydroxypropylcellulose) (HPC) 95 % of control | dose: 200.0 mg/kg/injection, schedule: Q04DX002 (ip), vehicle: Klucel (hydroxypropylcellulose) (HPC) 87 % of control

CCC(C#N)c1ccccc1 (stereo not given)
inactive: [11] 103 % of control | [1] 110 % of control | [12] 92 % of control | [2] 119 % of control | [13] 103 % of control | [3] 96 % of control

CNC(=O)Oc1ccccc1NC(=O)OC
inactive: dose: 25.0 mg/kg/injection, schedule: Q04DX003 (ip), vehicle: saline with Tween-80 97 % of control | dose: 50.0 mg/kg/injection, schedule: Q04DX003 (ip), vehicle: saline with Tween-80 95 % of control | [8] 92 % of control and 97 % of control

O=c1[nH]c(=O)n(CCc2cccs2)cc1F
inactive: [14] 98 % of control | [8] 93 % of control | [15] 96 % of control | [9] 96 % of control | [16] 98 % of control | [10] 95 % of control

FC(F)(F)c1nc2cccc3c2n1CCC3
inactive: dose: 50.0 mg/kg/injection, schedule: Q01DX009 (ip), vehicle: saline with Tween-80 93 % of control | [14] 87 % of control | [8] 97 % of control | [15] 101 % of control | [9] 96 % of control

O=C(O)c1ccccc1C(=O)NC(Cc1cnc[nH]1)C(=O)O (stereo not given)
inactive: [14] 96 % of control | [8] 102 % of control | [15] 100 % of control | [9] 102 % of control | [16] 94 % of control | [10] 91 % of control

CCCCCCCCCCCCCCC[n+]1ccc(C#N)cc1
inactive: dose: 5.0 mg/kg/injection, schedule: Q01DX009 (ip), vehicle: acetone 101 % of control | dose: 10.0 mg/kg/injection, schedule: Q01DX001 (ip), vehicle: saline 93 % of control | dose: 10.0 mg/kg/injection, schedule: Q01DX009 (ip), vehicle: acetone 100 % of control | dose: 10.0 mg/kg/injection, schedule: Q04DX003 (ip), vehicle: saline 101 % of control | dose: 20.0 mg/kg/injection, schedule: Q01DX001 (ip), vehicle: saline 93 % of control | dose: 20.0 mg/kg/injection, schedule: Q04DX003 (ip), vehicle: saline 94 % of control | dose: 40.0 mg/kg/injection, schedule: Q01DX001 (ip), vehicle: saline 98 % of control | dose: 40.0 mg/kg/injection, schedule: Q04DX003 (ip), vehicle: saline 92 % of control

Cc1ccc(Cl)cc1NC(=O)C(c1ccccc1)c1ccccc1
inactive: [11] 95 % of control | [1] 90 % of control | [12] 94 % of control | [2] 96 % of control | [13] 95 % of control | [3] 88 % of control

CC(C)(C)OC(=O)C1(C(=O)OC(C)(C)C)C2CCCCC21 (stereo not given)
inactive: dose: 100.0 mg/kg/injection, schedule: Q01DX001 (ip), vehicle: Klucel (hydroxypropylcellulose) (HPC) 95 % of control | [1] 101 % of control | dose: 200.0 mg/kg/injection, schedule: Q01DX001 (ip), vehicle: Klucel (hydroxypropylcellulose) (HPC) 90 % of control | [2] 101 % of control | dose: 400.0 mg/kg/injection, schedule: Q01DX001 (ip), vehicle: Klucel (hydroxypropylcellulose) (HPC) 87 % of control | [3] 96 % of control

CC(C)(C)CNC(=S)Nc1ccccc1
inactive: dose: 9.5 mg/kg/injection, schedule: Q01DX001 (ip), vehicle: other 98 % of control | dose: 19.0 mg/kg/injection, schedule: Q01DX001 (ip), vehicle: other 102 % of control | dose: 38.0 mg/kg/injection, schedule: Q01DX001 (ip), vehicle: other 104 % of control | dose: 75.0 mg/kg/injection, schedule: Q01DX001 (ip), vehicle: other 90 % of control
